The values that follow come from patent publication US6361998B1, “Efficient culture of stem cells for the production of hemoglobin” (Hemosol Inc., priority 1999, dated 2002).

In test [1] the test system is CD34^+ enriched cells from human umbilical cord blood LDMNC. In words: Expansion and differentiation of CD34+ enriched cells in serum-free suspension culture. Particulars: hemin added to defined culture medium (25 uM, FIG. 3). Format: cell-based. The method, then:
CD34^+ cells were enriched from human umbilical cord blood LDMNC by lineage depletion of cells expressing CD3, CD14, CD16, CD19, CD24, CD56, CD66b and glycophorin A (GlyA) to enrich lin^− cells. The viability of CD34^+ cells pre- and post-enrichment was determined by trypan-blue dye exclusion and cells were characterized for CD34 and CD45 co-expression by standard flow cytometry methods (see Table 2, FIG. 1).
CD34^+ cells were cultured at an initial seeding density of 1-2×10^4 cells/ml in EPSFM+LDL with the composition described in Table 1B. […]
At the end of 30 days in culture cells were fully differentiated erythroid cells with 57% of the cells staining positively with benzidine and 85% of the cells expressing the erythroid-specific membrane glycoprotein glycophorin A (GlyA). […] The amount of hemoglobin per cell was determined to be 5.2 pg using Western blot analysis. […]
CD34^+ enriched cells were cultured for 7 to 11 days, as described in Example 1. […] Fewer than 2% of the cells expressed CD34, and hematopoietic progenitors were present at a frequency of 21 BFU-E, 33 CFU-E and 25 CFU-GM per 1×10^5 cells as detected in methylcellulose colony forming assay. […] Field strength, capacitance, and pulse width were optimized to achieve an average transfection efficiency of approximately 20% as measured at 24 hours post-electroporation.

In test [2] the test system is CD34^+ enriched cells. In words: Addition of SA and hemin to EPSFM+LDL culture of CD34+ enriched cells, Hb content. Format: cell-based, human. As to conditions: at culture termination; SA 25 uM; hemin (if any) 25 uM at initiation of culture. How it is done: CD34^+ enriched cells were isolated and cultured in EPSFM+LDL as described in Example 1. In some samples, SA was added to EPSFM+LDL to a final concentration of 25 uM. In some instances, hemin was added to the SA containing cultures to a final hemin concentration of 25 uM. Hemin was added to some SA containing cultures at the initiation of culture and to others after 15 days of culture. The addition of SA, an inhibitor of heme synthesis, to EPSFM+LDL increased the fold expansion of cells obtained but reduced the percentage of GlyA^+ cells and the Hb content of these cells (Table 10). The low hemoglobin content was ameliorated by the addition of hemin to EPSFM+LDL+SA at the initiation of culture. However, as the percentage of GlyA^+ cells was decreased in this instance, the total amount of Hb per culture is similar to that observed with culture in EPSFM+LDL alone. The addition of hemin after 15 days of culture, instead of at culture initiation, further increased the fold expansion without reducing the percentage of GlyA^+ cells. Unexpectedly, the amount of hemoglobin per cell increased to approximately that obtained with EPSFM+LDL.

For test [3], the system named is CD34^+ enriched cells. In words: Expansion and differentiation of CD34+ enriched cells with SA added to EPSFM+LDL. Format: cell-based, human. The method, then:
CD34^+ enriched cells were isolated and cultured as described in Example 1. Succinylacetone (SA), a heme synthesis inhibitor, was added to EPSFM+LDL at concentrations of 25 to 250 uM at the initiation of culture. Results are depicted in Table 4 and FIGS. 4 to 6. The addition of 50 uM SA to EPSFM+LDL increased cell expansion 8-fold when compared to controls without SA (FIG. 4).

The test system of test [4] is BaF3 cells. Nature of the test: Cytokine-dependency growth of BaF3 cells transfected with human EpoR constructs. Particulars: for growth of BaF3 transfectants: no exogenous IL-3. Format: cell-based, murine. How it is done: The functionality of the EpoR(t439; R154C) was tested and compared to the wild-type EpoR (wtEpoR) and EpoR(t439) using the BaF3 cell line. The cDNAs encoding these three different EpoRs were subcloned into the pcDNA3.1 expression vector, which provides high-level constitutive expression of proteins in mammalian cells and also contains the neomycin gene for the selection of stable transfectant with G418. The vector constructs were electroporated into BaF3 cells and stable transfectants were isolated in the presence of 600 ug/ml G418. BaF3 transfectants were maintained in RPMI-1640 with 10% FBS and 5% WEHI conditioned medium (a source of murine IL-3), except during the cytokine-dependency studies when cells were maintained in RPMI-1640 plus 10% FBS, along with the indicated cytokines. Growth of the different EpoR transfectants in the presence of either murine IL-3 or two different doses of Epo was compared to that of the parental (non-transfected) BaF3 cells (FIG. 7). […] All three EpoR constructs encode functional receptors that allow expansion of the BaF3 cells in the presence of Epo without exogenous IL-3.

Test [5] deals with BaF3 cells. As to conditions: cited from earlier work.

Regarding hemin, the “effect of hemin addition on Hb content, number of GlyA cells and BZ positive cells” value in test [1] was “did not substantially increase”.
Turning to `CC(=O)CC(=O)CCC(=O)O` [SA, Succinylacetone], in test [2], the “% GlyA positive cells” value stood at 74%, the “Hb per GlyA^+ cell” value was 0.95 pg/cell, the “Total Hb per culture” value came out at 0.03 g and the “Total number of GlyA^+ cells” value was 2.9 × 10^10. For the same molecule, the “Total number of cells” value in test [2] is 3.9 × 10^10. Moreover, in test [3] (25 uM SA added to EPSFM + LDL), the “Total fold expansion (n = 3)” value was 6.36 × 10^6. Further, the “Total fold expansion (n = 3)” value in test [3] (50 uM SA added to EPSFM + LDL) is recorded as 2.89 × 10^7. The “increase in cell expansion compared to controls without SA” value in test [3] (50 uM SA in EPSFM+LDL) worked out at 8 fold. Besides, the “suppression of BZ staining and GlyA expression” value in test [3] (250 uM SA) is listed as “Maximum suppression”. Also, the “Total fold expansion (n = 3)” value in test [3] (250 uM SA added to EPSFM + LDL) was 6.77 × 10^6. The “percentages of BZ+ and GlyA+ cells after SA removal” value in test [3] (SA removed after at least 20 days of culture, by the following passage) is recorded as “increased significantly”. The “erythroid differentiation (percentages of BZ+ and GlyA+ cells)” value in test [3] (increasing amounts of SA (25 to 250 uM)) was “reduced erythroid differentiation”.

B1: EpoR: full length wild-type human erythropoietin receptor (protein)
chain: APPPNLPDPKFESKAALLAARGPEELLCFTERLEDLVCFWEEAASAGVGPGNYSFSYQLEDEPWKLCRLHQAPTARGAVRFWCSLPTADTSSFVPLELRVTAASGAPRYHRVIHINEVVLLDAPVGLVARLADESGHVVLRWLPPPETPMTSHIRYEVDVSAGNGAGSVQRVEILEGRTECVLSNLRGRTRYTFAVRARMAEPSFGGFWSAWSEPVSLLTPSDLDPLILTLSLILVVILVLLTVLALLSHRRALKQKIWPGIPSPESEFEGLFTTHKGNFQLWLYQNDGCLWWSPCTPFTEDPPASLEVLSERCWGTMQAVEPGTDDEGPLLEPVGSEHAQDTYLVLDKWLLPRNPPSEDLPGPGGSVDIVAMDEGSEASSCSSALASKPSPEGASAASFEYTILDPSSQLLRPWTLCPELPPTPPHLKYLYLVVSDSGISTDYSSGDSQGAQGGLSDGPYSNPYENSLIPAAEPLPPSYVACS
As to B1, the “growth of BaF3 transfectants” value in test [4] (0.02 U/ml Epo) is given as “did not grow”; in test [4] (2 U/ml Epo) it was “grew in the presence of 2 U/ml Epo alone”.

B2: EpoR(R129C): murine EpoR with Arg129 replaced by Cys, constitutively active (literature) (protein, UniProt P14753 25-507, looked up, variant R129C)
Erythropoietin receptor: APSPSLPDPKFESKAALLASRGSEELLCFTQRLEDLVCFWEEAASSGMDFNYSFSYQLEGESRKSCSLHQAPTVRGSVRFWCSLPTADTSSFVPLELQVTEASGSPRYHRIIHINEVVLLDAPAGLLACRAEEGSHVVLRWLPPPGAPMTTHIRYEVDVSAGNRAGGTQRVEVLEGRTECVLSNLRGGTRYTFAVRARMAEPSFSGFWSAWSEPASLLTASDLDPLILTLSLILVLISLLLTVLALLSHRRTLQQKIWPGIPSPESEFEGLFTTHKGNFQLWLLQRDGCLWWSPGSSFPEDPPAHLEVLSEPRWAVTQAGDPGADDEGPLLEPVGSEHAQDTYLVLDKWLLPRTPCSENLSGPGGSVDPVTMDEASETSSCPSDLASKPRPEGTSPSSFEYTILDPSSQLLCPRALPPELPPTPPHLKYLYLVVSDSGISTDYSSGGSQGVHGDSSDGPYSHPYENSLVPDSEPLHPGYVACS
Regarding B2, the “cytokine dependence of BaF3 cell growth” value in test [5] (over-expression of murine EpoR(R129C)) is recorded as “permits cytokine-independent growth of BaF3 cells”.

B3: truncated EpoR: murine EpoR with C-terminal 42 amino acids replaced with Ala-Leu (Yoshimura 1990) (protein, listed as Homo sapiens)
chain: MDHLGASLWPQVGSLCLLLAGAAWAPPPNLPDPKFESKAALLAARGPEELLCFTERLEDLVCFWEEAASAGVGPGNYSFSYQLEDEPWKLCRLHQAPTARGAVRFWCSLPTADTSSFVPLELRVTAASGAPRYHRVIHINEVVLLDAPVGLVARLADESGHVVLRWLPPPETPMTSHIRYEVDVSAGNGAGSVQRVEILEGRTECVLSNLRGRTRYTFAVRARMAEPSFGGFWSAWSEPVSLLTPSDLDPLILTLSLILVVILVLLTVLALLSHRRALKQKIWPGIPSPESEFEGLFTTHKGNFQLWLYQNDGCLWWSPCTPFTEDPPASLEVLSERCWGTMQAVEPGTDDEGPLLEPVGSEHAQDTYLVLDKWLLPRNPPSEDLPGPGGSVDIVAMDEGSEASSCSSALASKPSPEGASAASFEYTILDPSSQLLRP
Turning to B3, the “responsiveness to Epo relative to the wild-type EpoR” value in test [5] (murine EpoR, C-terminal 42 amino acids replaced with Ala-Leu, expressed in BaF3 cells) was 3-5 times.

B4: EpoR(t439): human EpoR truncated at Trp439; hypersensitive to Epo (SEQ ID NOS 4 and 5) (protein, listed as Homo sapiens)
chain: B3 chain
In the case of B4, the “growth of BaF3 transfectants” value in test [4] (0.02 U/ml Epo) and in test [4] (2 U/ml Epo) was “grew equally well” throughout. In addition, the “expansion of BaF3 cells” value in test [4] (absence of exogenous cytokines) was “did not support cell expansion”. Also, in test [4] (conclusion from BaF3 growth), the “functionality of the EpoR” value is “functional and hypersensitive to Epo”.
